{"source": "PubChem BioAssay AID180", "about": "(DTP/NCI, 2004)", "tested_on": "BDF1 mice, Adenocarcinoma 755 s.c., tumor weight T/C", "assay": "NCI In Vivo Anticancer Drug Screen. Data for tumor model Adenocarcinoma 755 (subcutaneous) in B6D2F1 (BDF1) mice", "details": "endpoint: mean tumor weight, schedule: Q01DX011 (ip), higher = larger tumour", "outline": "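Readout: T/C, i.e. treated-group measurement over vehicle-control measurement. Endpoint is survival or tumor size in tumor-bearing mice given compound.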", "key": {"[1]": {"details": "dose: 30.0 mg/kg/injection, vehicle: carboxymethylcellulose (CMC)"}, "[2]": {"details": "dose: 25.0 mg/kg/injection, vehicle: methylcellulose (MC)"}, "[3]": {"details": "dose: 75.0 mg/kg/injection, vehicle: methylcellulose (MC)"}}, "note": "Values joined by “and” are separate entries in the source; they are usually repeats but may differ in a detail not shown here. Equal values may be shown once."}
{"smiles": "Nc1nc(SCc2ccccc2[N+](=O)[O-])c2[nH]cnc2n1", "values": [{"measurement": "T/C", "setting": "dose: 3.7 mg/kg/injection, vehicle: carboxymethylcellulose (CMC)", "result": "95 % of control"}, {"measurement": "T/C", "setting": "dose: 7.5 mg/kg/injection, vehicle: carboxymethylcellulose (CMC)", "result": "90 % of control"}, {"measurement": "T/C", "setting": "dose: 15.0 mg/kg/injection, vehicle: carboxymethylcellulose (CMC)", "result": "68 % of control"}, {"measurement": "T/C", "setting": "[1]", "result": "67 % of control"}, {"measurement": "T/C", "setting": "dose: 37.5 mg/kg/injection, vehicle: carboxymethylcellulose (CMC)", "result": "2 % of control"}, {"measurement": "T/C", "setting": "dose: 75.0 mg/kg/injection, vehicle: carboxymethylcellulose (CMC)", "result": "1 % of control"}, {"measurement": "T/C", "setting": "dose: 300.0 mg/kg/injection, vehicle: carboxymethylcellulose (CMC)", "result": "4 % of control"}]}
{"smiles": "Nc1nc(SCc2ccccc2)c2ncn(C3CCCO3)c2n1", "note": "(stereo not given)", "values": [{"measurement": "T/C", "setting": "dose: 1.8 mg/kg/injection, vehicle: methylcellulose (MC)", "result": "68 % of control"}, {"measurement": "T/C", "setting": "dose: 3.7 mg/kg/injection, vehicle: methylcellulose (MC)", "result": "45 % of control"}, {"measurement": "T/C", "setting": "dose: 7.5 mg/kg/injection, vehicle: methylcellulose (MC)", "result": "2 % of control and 5 % of control"}, {"measurement": "T/C", "setting": "dose: 20.0 mg/kg/injection, vehicle: methylcellulose (MC)", "result": "2 % of control"}]}
{"smiles": "CC(/C=N\\N=C(N)N)=N/N=C(N)N", "values": [{"measurement": "T/C", "setting": "dose: 5.75 mg/kg/injection, vehicle: carboxymethylcellulose (CMC)", "result": "84 % of control"}, {"measurement": "T/C", "setting": "dose: 7.62 mg/kg/injection, vehicle: carboxymethylcellulose (CMC)", "result": "77 % of control"}, {"measurement": "T/C", "setting": "dose: 11.5 mg/kg/injection, vehicle: carboxymethylcellulose (CMC)", "result": "78 % of control"}, {"measurement": "T/C", "setting": "dose: 15.24 mg/kg/injection, vehicle: carboxymethylcellulose (CMC)", "result": "71 % of control"}, {"measurement": "T/C", "setting": "dose: 18.4 mg/kg/injection, vehicle: carboxymethylcellulose (CMC)", "result": "70 % of control and 86 % of control"}, {"measurement": "T/C", "setting": "dose: 23.0 mg/kg/injection, vehicle: carboxymethylcellulose (CMC)", "result": "93 % of control and 100 % of control and 80 % of control"}, {"measurement": "T/C", "setting": "dose: 30.48 mg/kg/injection, vehicle: carboxymethylcellulose (CMC)", "result": "42 % of control"}, {"measurement": "T/C", "setting": "dose: 46.0 mg/kg/injection, vehicle: carboxymethylcellulose (CMC)", "result": "29 % of control and 45 % of control and 51 % of control"}, {"measurement": "T/C", "setting": "dose: 60.96 mg/kg/injection, vehicle: carboxymethylcellulose (CMC)", "result": "35 % of control"}]}
{"smiles": "CSc1nc(=O)cc2[nH]c(O)cn12", "values": [{"measurement": "T/C", "setting": "[1]", "result": "90 % of control"}, {"measurement": "T/C", "setting": "dose: 60.0 mg/kg/injection, vehicle: carboxymethylcellulose (CMC)", "result": "98 % of control"}, {"measurement": "T/C", "setting": "dose: 120.0 mg/kg/injection, vehicle: carboxymethylcellulose (CMC)", "result": "50 % of control"}, {"measurement": "T/C", "setting": "dose: 240.0 mg/kg/injection, vehicle: carboxymethylcellulose (CMC)", "result": "118 % of control"}]}
{"smiles": "Nc1nc([S-])c2nc[nH]c2n1.Nc1nc([S-])c2nc[nH]c2n1.Nc1nc([S-])c2nc[nH]c2n1.[Pt]", "values": [{"measurement": "T/C", "setting": "dose: 1.0 mg/kg/injection, vehicle: carboxymethylcellulose (CMC)", "result": "44 % of control"}, {"measurement": "T/C", "setting": "dose: 1.3 mg/kg/injection, vehicle: carboxymethylcellulose (CMC)", "result": "65 % of control"}, {"measurement": "T/C", "setting": "dose: 2.0 mg/kg/injection, vehicle: carboxymethylcellulose (CMC)", "result": "19 % of control"}, {"measurement": "T/C", "setting": "dose: 2.5 mg/kg/injection, vehicle: carboxymethylcellulose (CMC)", "result": "12 % of control"}, {"measurement": "T/C", "setting": "dose: 4.0 mg/kg/injection, vehicle: carboxymethylcellulose (CMC)", "result": "2 % of control"}]}
{"smiles": "OCCn1cnc2c(SCc3ccccc3)ncnc21", "values": [{"measurement": "T/C", "setting": "dose: 12.5 mg/kg/injection, vehicle: methylcellulose (MC)", "result": "108 % of control"}, {"measurement": "T/C", "setting": "[2]", "result": "17 % of control"}, {"measurement": "T/C", "setting": "dose: 50.0 mg/kg/injection, vehicle: methylcellulose (MC)", "result": "3 % of control"}, {"measurement": "T/C", "setting": "[3]", "result": "3 % of control"}, {"measurement": "T/C", "setting": "dose: 100.0 mg/kg/injection, vehicle: methylcellulose (MC)", "result": "1 % of control"}]}
{"smiles": "CC1CCCCN1/N=N/c1nc2c([nH]1)c(=O)n(C)c(=O)n2C", "note": "(stereo not given)", "values": [{"measurement": "T/C", "setting": "[2]", "result": "59 % of control"}, {"measurement": "T/C", "setting": "[3]", "result": "68 % of control"}]}
{"smiles": "Cc1cc2nc3c(=O)[nH]c(=O)nc-3n(CCOC(=O)CCC(=O)O)c2cc1C", "values": [{"measurement": "T/C", "setting": "dose: 29.46 mg/kg/injection, vehicle: carboxymethylcellulose (CMC)", "result": "88 % of control"}, {"measurement": "T/C", "setting": "dose: 40.0 mg/kg/injection, vehicle: carboxymethylcellulose (CMC)", "result": "91 % of control"}, {"measurement": "T/C", "setting": "dose: 58.93 mg/kg/injection, vehicle: carboxymethylcellulose (CMC)", "result": "94 % of control"}, {"measurement": "T/C", "setting": "dose: 80.0 mg/kg/injection, vehicle: carboxymethylcellulose (CMC)", "result": "122 % of control"}, {"measurement": "T/C", "setting": "dose: 117.85 mg/kg/injection, vehicle: carboxymethylcellulose (CMC)", "result": "93 % of control"}, {"measurement": "T/C", "setting": "dose: 126.0 mg/kg/injection, vehicle: carboxymethylcellulose (CMC)", "result": "107 % of control"}, {"measurement": "T/C", "setting": "dose: 160.0 mg/kg/injection, vehicle: carboxymethylcellulose (CMC)", "result": "59 % of control"}, {"measurement": "T/C", "setting": "dose: 235.7 mg/kg/injection, vehicle: carboxymethylcellulose (CMC)", "result": "90 % of control"}, {"measurement": "T/C", "setting": "dose: 252.0 mg/kg/injection, vehicle: carboxymethylcellulose (CMC)", "result": "115 % of control"}]}
{"smiles": "CSc1ncc(Br)c(Nc2ccc(C)cc2)n1", "values": [{"measurement": "T/C", "setting": "dose: 15.0 mg/kg/injection, vehicle: methylcellulose (MC)", "result": "75 % of control"}, {"measurement": "T/C", "setting": "dose: 31.0 mg/kg/injection, vehicle: methylcellulose (MC)", "result": "74 % of control"}, {"measurement": "T/C", "setting": "dose: 62.0 mg/kg/injection, vehicle: methylcellulose (MC)", "result": "75 % of control"}, {"measurement": "T/C", "setting": "dose: 125.0 mg/kg/injection, vehicle: methylcellulose (MC)", "result": "92 % of control"}, {"measurement": "T/C", "setting": "dose: 250.0 mg/kg/injection, vehicle: methylcellulose (MC)", "result": "68 % of control"}]}
